Data reported in patent US4908365A, “Benzhydryloxyethylpiperazine derivatives, processes for their preparation and pharmaceutical compositions in which they are present” (priority 1986, dated 1990).
Where two headings read alike, the source gives them in different places.

Tests used:
in vivo = details: mouse, ip
[1] = test system: peritoneal pain caused by phenylbenzoquinone (PBQ); experiment: Peripheral analgesic activity (phenylbenzoquinone peritoneal pain); type: in vivo, mice; details: Mus musculus, 0.5 h, read-out: Peripheral analgesic activity ED50
Excerpt: E-Peripheral analgesic activity
A peritoneal pain is caused in mice by the intraperitoneal injection of phenylbenzoquinone (PBQ). The test tries to measure the decrease in the pain syndrome, characterized by an abdominal twisting movement, which is caused by injecting the test product thirty minutes before the administration of PBQ.

histamine [2] = experiment: Bronchospasm by inhalation of a histamine solution; type: in vivo, guinea-pigs; details: for ED50: Cavia porcellus, 0.5 h, read-out: Bronchospasm ED50
Description: F-Bronchospasm by inhalation of a histamine solution
Guinea-pigs are placed in a closed chamber into which histamine is introduced as an aerosol, and only those which show very distinct signs of asphyxia within four minutes are selected.
The substance to be studied is administered to groups of guinea-pigs thirty minutes before a further period in the chamber in order to check the resistance to histamine. A guinea-pig is considered to be protected if it resists the histamine aerosol for ten minutes without showing signs of asphyxia.
A 50% effective dose is calculated from the results obtained.

histamine [3] = experiment: animal or person; type: in vivo, guinea-pigs; details: Cavia porcellus, 0.5 h, read-out: Histaminic shock ED50
[4] = test system: sleep induced by pentobarbital; experiment: animal or person; type: in vivo, mice; details: ip
mice [5] = experiment: Exploration behavior (hole-board); type: in vivo; details: Mus musculus, ip, 0.5 h, read-out: Exploration behavior ED50
Excerpt: Thirty minutes after the intraperitoneal administration of the derivatives according to the invention, each mouse is placed on an automated hole-board for five minutes and the number of holes explored is noted every minute.
(§1) A 50% effective dose can be calculated from the results obtained.

mice [6] = experiment: Study of the spontaneous motility (motor activity), photoelectric actimeter; type: in vivo; details: mouse, at 25 mg.kg^-1 i.p.
mice [7] = experiment: Muscle-relaxing action (traction test); type: in vivo; details: Mus musculus, ip, read-out: Muscle-relaxing action - Traction test ED50
Excerpt: C-Muscle-relaxing action (traction test)
This test assesses the presence or absence of redressments in a mouse brought up to a horizontal wire with its front paws.
The number of mice which are unable to grip the wire with one of their back paws within five seconds are noted.
as §1

SMILES	LD50 (in vivo)	ED50 ([1]; ip)	ED50 (histamine [2]; ip)	ED50 (histamine [3]; ip)	ED50 (histamine [2]; po)	ED50 (histamine [3]; po)	further results
CS(=O)(=O)O.CS(=O)(=O)O.O=C1c2ccccc2C(=O)N1CCN1CCN(CCOC(c2ccccc2)c2ccccc2)CC1 [Derivative 2, 1-[2-(Benzhydryloxy)ethyl]-4-[2-(phthalimido)-ethyl]piperazine dimethanesulfonate]	211 mg/kg	3.12 mg/kg	3.67 mg/kg	2.03 mg/kg			
O=C1c2ccccc2C(=O)N1CCCCN1CCN(CCOC(c2ccccc2)c2ccccc2)CC1 [Derivative 19]	133 mg/kg	1.56 mg/kg			5.34 mg/kg	2.2 mg/kg	
O=C1CCC(=O)N1CCN1CCN(CCOC(c2ccccc2)c2ccccc2)CC1 [Derivative 22]	146 mg/kg		3.96 mg/kg	3.25 mg/kg			ED50 ([1]; po): 35 mg/kg
O=c1n(CCN2CCN(CCOC(c3ccccc3)c3ccccc3)CC2)c2ccccc2n1Cc1ccccc1 [Derivative 32]	400 mg/kg					2.3 mg/kg	Bronchospasm (histamine [2]; guinea pig, in vivo, po): 33%
O=C(NCCN1CCN(CCOC(c2ccccc2)c2ccccc2)CC1)c1ccccc1[N+](=O)[O-] [Derivative 49]	131 mg/kg				3.12 mg/kg		Interaction with pentobarbital ([4]; mouse, in vivo): no interaction; ED50 ([1]; sc): 2.6 mg/kg
CC(C)(C)c1ccc(C(O)CCCN2CCC(C(O)(c3ccccc3)c3ccccc3)CC2)cc1 (stereo not shown) [Terfenadine, reference compound]	100 mg/kg	3.1 mg/kg					ED50 (mice [5]): 37 mg/kg; ED50 ([4]; Mus musculus, read-out: Interaction with pentobarbital ED50): 25 mg/kg; Motor activity (mice [6]): Significant decrease; ED50 (mice [7]): 31 mg/kg
